Test results taken from patent publication US10988445B2 (AstraZeneca AB, priority 2015, dated 2021).

System: human TH17 cells
Assay: Inhibition of IL-17 release from human TH17 cells
Assay type: cell-based
Conditions: Homo sapiens, 96 h, isolated human TH17 cells, 4 days culture, IL-17A by HTRF; read-out: pIC50 IL-17 release (converted)
Text: Inhibition of IL-17 Release from Human TH17 Cells (IL-17 Release)
This test is designed to screen compounds for their inhibitory effect on the release of IL-17 from isolated and cultured human TH17 cells.
Peripheral blood mononuclear cells (PBMC) were isolated from heparin treated human whole blood fromhealthy donors by density gradient centrifugation. TH17 cells (CD4+CXCR3-CCR6+) were enriched using a human TH17 Cell Enrichment Kit (Stemcell Technologies) according to the manufacturer's protocol. […] On day 4 supernatants were collected and IL-17A was measured using a Human IL-17 HTRF Assay kit (Cisbio Bioassays) according to the manufacturer's protocol. […] Results

Q: With `CC1(C(=O)N2Cc3cc(S(C)(=O)=O)ccc3C2C(=O)Nc2ccc(C(O)(C(F)(F)F)C(F)(F)F)cc2)CCO1` (racemic) [Example 445] as the compound, how does the IC50 read?
A: The IC50 was 25.1 nM.

Q: How did the IC50 turn out when `CO[C@H](C)C(=O)N1Cc2cc(S(C)(=O)=O)ccc2C1C(=O)Nc1ccc(C(O)(C(F)(F)F)C(F)(F)F)cc1` (mixture of isomers) [Example 449, N-[4-(1,1,1,3,3,3-Hexafluoro-2-hydroxypropan-2-yl)phenyl]-2-[(2R)-2-methoxypropanoyl]-5-(methylsulfonyl)-2,3-dihydro-1H-isoindole-1-carboxamide] was run?
A: Its IC50 is 79.4 nM.

Q: Which IC50 does the source give for `CC[C@@H](O)C(=O)N1Cc2cc(S(C)(=O)=O)ccc2C1C(=O)Nc1ccc(C(O)(C(F)(F)F)C(F)(F)F)cc1` (single isomer, unassigned) [Example 409, isomer 1] here?
A: The IC50 was 63.1 nM.

Q: How did the IC50 turn out when `CC(C)[C@@H](O)C(=O)N1Cc2cc(S(C)(=O)=O)ccc2C1C(=O)Nc1ccc(C(O)(C(F)(F)F)C(F)(F)F)cc1` (single isomer, unassigned) [Example 422] was run?
A: Its IC50 is 39.8 nM.

Q: `CC(C)[C@H](O)C(=O)N1Cc2cc(S(C)(=O)=O)ccc2C1C(=O)Nc1ccc(C(O)(C(F)(F)F)C(F)(F)F)cc1` (single isomer, unassigned) [Example 423] was tested. Which IC50 did it give?
A: The IC50 was 79.4 nM.

Q: With `CCS(=O)(=O)c1ccc2c(c1)CNC2C(=O)Nc1ccc(C(O)(C(F)(F)F)C(F)(F)F)cc1` (stereo not drawn) [Example 100, 5-(Ethylsulfonyl)-N-[4-(1,1,1,3,3,3-hexafluoro-2-hydroxypropan-2-yl)phenyl]-2,3-dihydro-1H-isoindole-1-carboxamide] as the compound, how does the IC50 read?
A: Its IC50 is 39.8 nM.

Q: For `CCS(=O)(=O)c1ccc2c(c1)CN(C(=O)C(F)(F)C1CC1)C2C(=O)Nc1ccc(C(O)(C(F)(F)F)C(F)(F)F)cc1` (stereo not drawn) [Example 104, 2-[Cyclopropyl(difluoro)acetyl]-5-(ethylsulfonyl)-N-[4-(1,1,1,3,3,3-hexafluoro-2-hydroxypropan-2-yl)phenyl]-2,3-dihydro-1H-isoindole-1-carboxamide], which IC50 is on record?
A: Its IC50 is 20 nM.

Q: With `CCS(=O)(=O)c1ccc2c(c1)CN(C(=O)C1(C#N)CC1)C2C(=O)Nc1ccc(C(O)(C(F)(F)F)C(F)(F)F)cc1` (stereo not drawn) [Example 105, 2-[(1-Cyanocyclopropyl)carbonyl]-5-(ethylsulfonyl)-N-[4-(1,1,1,3,3,3-hexafluoro-2-hydroxypropan-2-yl)phenyl]-2,3-dihydro-1H-isoindole-1-carboxamide] as the compound, how does the IC50 read?
A: The IC50 was 20 nM.

Q: For `CCS(=O)(=O)c1ccc2c(c1)CN(C(=O)CC(C)(C)O)C2C(=O)Nc1ccc(C(O)(C(F)(F)F)C(F)(F)F)cc1` (stereo not drawn) [Example 106, 5-(Ethylsulfonyl)-N-[4-(1,1,1,3,3,3-hexafluoro-2-hydroxypropan-2-yl)phenyl]-2-(3-hydroxy-3-methylbutanoyl)-2,3-dihydro-1H-isoindole-1-carboxamide], which IC50 is on record?
A: The IC50 was 63.1 nM.

Q: How did the IC50 turn out when `CCS(=O)(=O)c1ccc2c(c1)CN(C(=O)CC1(O)CC1)C2C(=O)Nc1ccc(C(O)(C(F)(F)F)C(F)(F)F)cc1` (stereo not drawn) [Example 107, 5-(Ethylsulfonyl)-N-[4-(1,1,1,3,3,3-hexafluoro-2-hydroxypropan-2-yl)phenyl]-2-[(1-hydroxycyclopropyl)acetyl]-2,3-dihydro-1H-isoindole-1-carboxamide] was run?
A: Its IC50 is 50.1 nM.

Q: `CCS(=O)(=O)c1ccc2c(c1)CN(C(=O)CC1CCC1)C2C(=O)Nc1ccc(C(O)(C(F)(F)F)C(F)(F)F)cc1` (stereo not drawn) [Example 109, 2-(Cyclobutylacetyl)-5-(ethylsulfonyl)-N-[4-(1,1,1,3,3,3-hexafluoro-2-hydroxypropan-2-yl)phenyl]-2,3-dihydro-1H-isoindole-1-carboxamide] was tested. Which IC50 did it give?
A: Its IC50 is 20 nM.

Q: For `CCS(=O)(=O)c1ccc2c(c1)CN(C(=O)CC1(OC)CC1)C2C(=O)Nc1ccc(C(O)(C(F)(F)F)C(F)(F)F)cc1` (stereo not drawn) [Example 112, 5-(Ethylsulfonyl)-N-[4-(1,1,1,3,3,3-hexafluoro-2-hydroxypropan-2-yl)phenyl]-2-[(1-methoxycyclopropyl)acetyl]-2,3-dihydro-1H-isoindole-1-carboxamide], which IC50 is on record?
A: Its IC50 is 31.6 nM.

Q: With `CCS(=O)(=O)c1ccc2c(c1)CN(C(=O)C1CCOC1)C2C(=O)Nc1ccc(C(O)(C(F)(F)F)C(F)(F)F)cc1` (stereo not drawn) [Example 113, 5-(Ethylsulfonyl)-N-[4-(1,1,1,3,3,3-hexafluoro-2-hydroxypropan-2-yl)phenyl]-2-(tetrahydrofuran-3-ylcarbonyl)-2,3-dihydro-1H-isoindole-1-carboxamide] as the compound, how does the IC50 read?
A: The IC50 was 79.4 nM.

Q: With `CCS(=O)(=O)c1ccc2c(c1)CN(C(=O)C1CCCO1)C2C(=O)Nc1ccc(C(O)(C(F)(F)F)C(F)(F)F)cc1` (stereo not drawn) [Example 114, 5-(Ethylsulfonyl)-N-[4-(1,1,1,3,3,3-hexafluoro-2-hydroxypropan-2-yl)phenyl]-2-(tetrahydrofuran-2-ylcarbonyl)-2,3-dihydro-1H-isoindole-1-carboxamide] as the compound, how does the IC50 read?
A: Its IC50 is 31.6 nM.

Q: Which IC50 does the source give for `CCS(=O)(=O)c1ccc2c(c1)CN(C(=O)CC1(N(C)C)CC1)C2C(=O)Nc1ccc(C(O)(C(F)(F)F)C(F)(F)F)cc1` (stereo not drawn) [Example 115, 2-{[1-(Dimethylamino)cyclopropyl]acetyl}-5-(ethylsulfonyl)-N-[4-(1,1,1,3,3,3-hexafluoro-2-hydroxypropan-2-yl)phenyl]-2,3-dihydro-1H-isoindole-1-carboxamide] here?
A: Its IC50 is 63.1 nM.

Q: How did the IC50 turn out when `CCS(=O)(=O)c1ccc2c(c1)CN(C(=O)CC#N)C2C(=O)Nc1ccc(C(O)(C(F)(F)F)C(F)(F)F)cc1` (stereo not drawn) [Example 116, 2-(Cyanoacetyl)-5-(ethylsulfonyl)-N-[4-(1,1,1,3,3,3-hexafluoro-2-hydroxypropan-2-yl)phenyl]-2,3-dihydro-1H-isoindole-1-carboxamide] was run?
A: The IC50 was 200 nM.

Q: How did the IC50 turn out when `CCS(=O)(=O)c1ccc2c(c1)CN(C(=O)C1(CO)CC1)C2C(=O)Nc1ccc(C(O)(C(F)(F)F)C(F)(F)F)cc1` (stereo not drawn) [Example 117, 5-(Ethylsulfonyl)-N-[4-(1,1,1,3,3,3-hexafluoro-2-hydroxypropan-2-yl)phenyl]-2-{[1-(hydroxymethyl)cyclopropyl]carbonyl}-2,3-dihydro-1H-isoindole-1-carboxamide] was run?
A: The IC50 was 79.4 nM.

Q: For `O=C(Nc1ccc(C(O)(C(F)(F)F)C(F)(F)F)cc1)C1NCc2cc(S(=O)(=O)CC3CC3)ccc21` (stereo not drawn) [Example 200, 5-[(Cyclopropylmethyl)sulfonyl]-N-[4-(1,1,1,3,3,3-hexafluoro-2-hydroxypropan-2-yl)phenyl]-2,3-dihydro-1H-isoindole-1-carboxamide], which IC50 is on record?
A: The IC50 was 31.6 nM.

Q: How did the IC50 turn out when `CCOC(=O)N1Cc2cc(S(=O)(=O)CC3CC3)ccc2C1C(=O)Nc1ccc(C(O)(C(F)(F)F)C(F)(F)F)cc1` (stereo not drawn) [Example 204, Ethyl 5-[(cyclopropylmethyl)sulfonyl]-1-{[4-(1,1,1,3,3,3-hexafluoro-2-hydroxypropan-2-yl)phenyl]carbamoyl}-1,3-dihydro-2H-isoindole-2-carboxylate] was run?
A: Its IC50 is 7.94 nM.

Q: Which IC50 does the source give for `COC1(CC(=O)N2Cc3cc(S(=O)(=O)CC4CC4)ccc3C2C(=O)Nc2ccc(C(O)(C(F)(F)F)C(F)(F)F)cc2)CC1` (stereo not drawn) [Example 205, 5-[(Cyclopropylmethyl)sulfonyl]-N-[4-(1,1,1,3,3,3-hexafluoro-2-hydroxypropan-2-yl)phenyl]-2-[(1-methoxycyclopropyl)acetyl]-2,3-dihydro-1H-isoindole-1-carboxamide] here?
A: Its IC50 is 15.8 nM.

Q: Which IC50 does the source give for `O=C(Nc1ccc(C(O)(C(F)(F)F)C(F)(F)F)cc1)C1c2ccc(S(=O)(=O)CC3CC3)cc2CN1C(=O)CC1(O)CC1` (stereo not drawn) [Example 206, 5-[(Cyclopropylmethyl)sulfonyl]-N-[4-(1,1,1,3,3,3-hexafluoro-2-hydroxypropan-2-yl)phenyl]-2-[(1-hydroxycyclopropyl)acetyl]-2,3-dihydro-1H-isoindole-1-carboxamide] here?
A: The IC50 was 39.8 nM.

Same assay, conditions: isolated human TH17 cells, 4 days culture, IL-17A by HTRF; listed as 303, isomer 1

Q: `CC[C@@H](O)C(=O)N1Cc2cc(S(=O)(=O)NC)ccc2C1C(=O)Nc1ccc(C(O)(C(F)(F)F)C(F)(F)F)cc1` (single isomer, unassigned) [Example 303, isomer 1] was tested. Which “pIC50 IL-17 release” value did it give?
A: Its value is 6.7.

Same assay, conditions: isolated human TH17 cells, 4 days culture, IL-17A by HTRF; listed as 303, isomer 2

Q: `CC[C@@H](O)C(=O)N1Cc2cc(S(=O)(=O)NC)ccc2C1C(=O)Nc1ccc(C(O)(C(F)(F)F)C(F)(F)F)cc1` (single isomer, unassigned) [Example 303, isomer 2] was tested. Which “pIC50 IL-17 release” value did it give?
A: Its value is 7.5.

Same assay, conditions: isolated human TH17 cells, 4 days culture, IL-17A by HTRF; listed as 307, isomer 1

Q: For `CC[C@H](O)C(=O)N1Cc2cc(S(=O)(=O)NC)ccc2C1C(=O)Nc1ccc(C(O)(C(F)(F)F)C(F)(F)F)cc1` (single isomer, unassigned) [Example 307, isomer 1, (R) or (S)N-[4-(1,1,1,3,3,3-Hexafluoro-2-hydroxypropan-2-yl)phenyl]-2-[(2S)-2-hydroxybutanoyl]-5-(methylsulfamoyl)-2,3-dihydro-1H-isoindole-1-carboxamide], which “pIC50 IL-17 release” value is on record?
A: Its value is 7.5.

Same assay, conditions: isolated human TH17 cells, 4 days culture, IL-17A by HTRF; listed as 307, isomer 2

Q: Which “pIC50 IL-17 release” value does the source give for `CC[C@H](O)C(=O)N1Cc2cc(S(=O)(=O)NC)ccc2C1C(=O)Nc1ccc(C(O)(C(F)(F)F)C(F)(F)F)cc1` (single isomer, unassigned) [Example 307, isomer 2, (R) or (S)N-[4-(1,1,1,3,3,3-Hexafluoro-2-hydroxypropan-2-yl)phenyl]-2-[(2S)-2-hydroxybutanoyl]-5-(methylsulfamoyl)-2,3-dihydro-1H-isoindole-1-carboxamide] here?
A: Its value is 6.5.

Same assay, conditions: isolated human TH17 cells, 4 days culture, IL-17A by HTRF; listed as 452, isomer 1

Q: With `CC1(C(=O)N2Cc3cc(S(C)(=O)=O)ccc3[C@@H]2C(=O)Nc2ccc(C(O)(C(F)(F)F)C(F)(F)F)cc2)CCO1` (single isomer, unassigned) [Example 452, isomer 1] as the compound, how does the “pIC50 IL-17 release” value read?
A: The value was 7.7.

Same assay, conditions: isolated human TH17 cells, 4 days culture, IL-17A by HTRF; listed as 452, isomer 2

Q: `CC1(C(=O)N2Cc3cc(S(C)(=O)=O)ccc3[C@@H]2C(=O)Nc2ccc(C(O)(C(F)(F)F)C(F)(F)F)cc2)CCO1` (single isomer, unassigned) [Example 452, isomer 2] was tested. Which “pIC50 IL-17 release” value did it give?
A: Its value is 7.3.
